Source: patent US9492471B2, “Methods of treating a disease or disorder associated with Bruton'S Tyrosine Kinase” (Celgene Avilomics Research, Inc., priority 2013, dated 2016)
Read-outs that look alike come from different tables or passages of the source.

What was measured:
Experiment in all cases: HotSpot kinase profiling
Assay type in all cases: biochemical
[1] = target: T1, EPHA4 (Homo sapiens, UniProt P54764)
T1 construct: purchased Reaction Biology Corp
In short: (§1)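 Activity is measured by radiolabel transfer captured on P81 filters after a 2 h room-temperature reaction of kinase, substrate and cofactors. Values are percent inhibition against DMSO.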

[2] = target: T2, IKKb/IKBKB (Homo sapiens, UniProt O14920)
T2 construct: purchased Reaction Biology Corp
T2 sequence (O14920 1-756): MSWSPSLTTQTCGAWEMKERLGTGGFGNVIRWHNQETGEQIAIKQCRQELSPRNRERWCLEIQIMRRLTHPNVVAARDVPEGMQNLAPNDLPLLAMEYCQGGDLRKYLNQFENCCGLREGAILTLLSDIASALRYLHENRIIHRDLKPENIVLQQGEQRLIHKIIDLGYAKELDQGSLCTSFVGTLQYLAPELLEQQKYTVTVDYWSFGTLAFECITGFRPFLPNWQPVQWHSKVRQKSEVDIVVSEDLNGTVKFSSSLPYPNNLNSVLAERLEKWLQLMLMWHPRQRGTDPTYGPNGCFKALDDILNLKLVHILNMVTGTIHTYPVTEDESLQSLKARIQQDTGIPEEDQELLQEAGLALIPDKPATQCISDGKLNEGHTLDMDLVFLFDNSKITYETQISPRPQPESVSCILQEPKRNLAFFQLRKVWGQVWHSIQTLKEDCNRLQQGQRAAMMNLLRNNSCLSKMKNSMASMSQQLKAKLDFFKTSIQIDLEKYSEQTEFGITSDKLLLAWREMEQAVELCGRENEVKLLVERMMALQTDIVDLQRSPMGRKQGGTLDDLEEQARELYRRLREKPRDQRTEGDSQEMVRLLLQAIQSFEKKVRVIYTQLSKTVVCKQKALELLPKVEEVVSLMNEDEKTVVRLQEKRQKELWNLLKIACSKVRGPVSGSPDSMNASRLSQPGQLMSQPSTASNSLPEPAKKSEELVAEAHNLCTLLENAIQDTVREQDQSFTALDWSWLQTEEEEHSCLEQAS
In short: as §1

[3] = target: T3, JNK3 (Homo sapiens, UniProt P53779)
T3 construct: purchased Reaction Biology Corp
In short: as §1

[4] = target: T4, LATS1 (Homo sapiens, UniProt O95835)
T4 construct: purchased Reaction Biology Corp
T4 sequence (O95835 1-1130): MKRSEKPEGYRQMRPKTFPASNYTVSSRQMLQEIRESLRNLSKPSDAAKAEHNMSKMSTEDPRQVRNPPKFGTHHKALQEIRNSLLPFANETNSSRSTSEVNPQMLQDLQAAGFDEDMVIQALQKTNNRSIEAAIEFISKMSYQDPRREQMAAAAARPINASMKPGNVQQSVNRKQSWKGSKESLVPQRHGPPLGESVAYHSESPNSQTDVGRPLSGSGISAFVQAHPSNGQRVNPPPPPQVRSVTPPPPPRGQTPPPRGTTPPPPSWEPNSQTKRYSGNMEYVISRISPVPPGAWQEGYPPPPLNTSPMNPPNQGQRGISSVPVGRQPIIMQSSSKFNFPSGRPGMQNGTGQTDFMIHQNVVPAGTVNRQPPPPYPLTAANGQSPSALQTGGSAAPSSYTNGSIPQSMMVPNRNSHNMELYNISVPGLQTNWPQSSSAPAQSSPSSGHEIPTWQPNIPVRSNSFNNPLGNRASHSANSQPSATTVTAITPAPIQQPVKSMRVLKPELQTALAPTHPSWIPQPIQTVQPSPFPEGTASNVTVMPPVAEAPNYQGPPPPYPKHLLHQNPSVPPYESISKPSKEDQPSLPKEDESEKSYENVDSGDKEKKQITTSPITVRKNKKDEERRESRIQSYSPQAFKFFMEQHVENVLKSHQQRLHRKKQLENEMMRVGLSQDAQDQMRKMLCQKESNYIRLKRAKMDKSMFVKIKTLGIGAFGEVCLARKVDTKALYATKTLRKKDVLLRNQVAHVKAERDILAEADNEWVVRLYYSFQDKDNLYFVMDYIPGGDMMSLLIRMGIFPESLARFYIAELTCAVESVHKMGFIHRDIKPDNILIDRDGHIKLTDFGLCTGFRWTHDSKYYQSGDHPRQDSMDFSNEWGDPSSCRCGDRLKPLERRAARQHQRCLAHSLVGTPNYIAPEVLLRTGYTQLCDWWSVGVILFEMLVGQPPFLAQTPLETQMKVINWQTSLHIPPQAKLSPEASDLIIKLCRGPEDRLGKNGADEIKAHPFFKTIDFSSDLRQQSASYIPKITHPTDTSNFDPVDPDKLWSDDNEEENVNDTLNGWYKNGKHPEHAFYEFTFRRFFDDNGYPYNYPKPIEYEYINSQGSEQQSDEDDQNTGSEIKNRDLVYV
In short: as §1

[5] = read-out: % Enzyme Activity (relative to DMSO controls) Run 1
[6] = read-out: % Enzyme Activity (relative to DMSO controls) Run 2

T3 sequence (P53779 whole entry): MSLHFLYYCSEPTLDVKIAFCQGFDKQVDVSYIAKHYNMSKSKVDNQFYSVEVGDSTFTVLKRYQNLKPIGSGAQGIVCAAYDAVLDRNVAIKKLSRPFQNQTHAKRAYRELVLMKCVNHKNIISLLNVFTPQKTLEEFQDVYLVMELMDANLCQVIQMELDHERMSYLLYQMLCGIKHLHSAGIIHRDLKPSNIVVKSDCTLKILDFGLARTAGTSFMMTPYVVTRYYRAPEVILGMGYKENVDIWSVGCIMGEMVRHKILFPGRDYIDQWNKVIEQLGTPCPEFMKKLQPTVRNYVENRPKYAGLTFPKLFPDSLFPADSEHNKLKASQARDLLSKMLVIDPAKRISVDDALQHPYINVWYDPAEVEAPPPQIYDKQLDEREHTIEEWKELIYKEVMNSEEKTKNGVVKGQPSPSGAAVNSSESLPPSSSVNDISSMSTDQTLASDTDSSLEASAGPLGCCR
T1 sequence (P54764 20-986): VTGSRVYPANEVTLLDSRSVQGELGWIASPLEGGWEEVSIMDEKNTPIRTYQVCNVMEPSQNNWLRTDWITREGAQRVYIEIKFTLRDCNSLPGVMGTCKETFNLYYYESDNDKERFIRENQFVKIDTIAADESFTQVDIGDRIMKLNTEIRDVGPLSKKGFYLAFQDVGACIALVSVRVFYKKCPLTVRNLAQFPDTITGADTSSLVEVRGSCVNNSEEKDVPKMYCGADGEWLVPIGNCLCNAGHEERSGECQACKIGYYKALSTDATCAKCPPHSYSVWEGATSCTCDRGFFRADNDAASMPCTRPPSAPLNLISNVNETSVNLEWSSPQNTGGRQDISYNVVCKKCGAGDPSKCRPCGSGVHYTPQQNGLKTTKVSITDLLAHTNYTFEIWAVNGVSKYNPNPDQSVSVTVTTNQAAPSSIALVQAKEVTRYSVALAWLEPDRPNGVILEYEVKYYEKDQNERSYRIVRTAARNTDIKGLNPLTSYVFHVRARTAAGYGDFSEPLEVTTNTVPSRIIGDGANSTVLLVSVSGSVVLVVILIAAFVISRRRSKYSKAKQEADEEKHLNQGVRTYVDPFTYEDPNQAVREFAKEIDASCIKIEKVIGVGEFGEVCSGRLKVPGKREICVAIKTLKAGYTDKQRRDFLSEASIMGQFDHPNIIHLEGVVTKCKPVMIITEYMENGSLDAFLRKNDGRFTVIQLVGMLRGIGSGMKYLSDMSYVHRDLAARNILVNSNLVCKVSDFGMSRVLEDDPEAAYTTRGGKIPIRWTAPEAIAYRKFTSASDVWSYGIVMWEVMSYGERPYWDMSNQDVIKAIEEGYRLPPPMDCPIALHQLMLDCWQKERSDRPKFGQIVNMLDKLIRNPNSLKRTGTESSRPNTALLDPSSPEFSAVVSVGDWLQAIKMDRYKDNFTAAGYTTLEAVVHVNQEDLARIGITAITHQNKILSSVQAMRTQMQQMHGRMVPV

Q: How did the inhibition at 3 µM [1] turn out when `C=CC(=O)Nc1cccc(Nc2nc(Nc3ccc(OCCOC)c(F)c3)ncc2F)c1` [Compound 2] was run?
A: 9.09%

Q: What about the remaining activity at 3 µM [1, 5] of the same molecule?
A: 92.9%

Q: And the remaining activity at 3 µM [1, 6]?
A: 89%

Q: What about the inhibition at 3 µM [2] of the same molecule?
A: 3.75%

Q: And the remaining activity at 3 µM [2, 5]?
A: 95.4%

Q: What about the remaining activity at 3 µM [2, 6] of the same molecule?
A: 97.1%

Q: What about the inhibition at 3 µM [3] of the same molecule?
A: -12.8%

Q: What about the remaining activity at 3 µM [3, 5] of the same molecule?
A: 110%

Q: And the remaining activity at 3 µM [3, 6]?
A: 116%

Q: What about the inhibition at 3 µM [4] of the same molecule?
A: 10.3%

Q: What about the remaining activity at 3 µM [4, 5] of the same molecule?
A: 89.5%

Q: And the remaining activity at 3 µM [4, 6]?
A: 89.8%
